Data published in publication PMC4384115, “Molecular Recognition of PTS-1 Cargo Proteins by Pex5p: Implications for Protein Mistargeting in Primary Hyperoxaluria” (Biomolecules, 2015).
No end group written: not given here.

Tests used:
[1] = target: T1, Pex5p-pbd (PTS1 binding domain of human Pex5p, amino acids 235–602) (Homo sapiens, UniProt P50542); test: Isothermal titration calorimetry of AGT proteins and PTS1 nonapeptides with Pex5p-pbd; settings: for decrease in the enthalpic penalty (more favorable enthalpic contribution) to binding compared to the natural PTS1 sequence / Kd / -TΔS / ΔG / ΔH / N (binding stoichiometry): ITC; for decrease in the enthalpic penalty (more favorable enthalpic contribution) to binding compared to the natural PTS1 sequence: 25 °C, full-length AGT / AGT-LRM background; for Kd / -TΔS / ΔG / ΔH / N (binding stoichiometry): pH 7.4, 25 °C; for ΔCp: from the linear dependence of ΔH on temperature, 10–35 °C, pH 7.4; for N (binding stoichiometry): 20 mM Na-HEPES, 200 mM NaCl, AGT protein in cell titrated with Pex5p-pbd
T1 construct: Pex5p-pbd; amino acids 235–602; hexa-histidine (N); made in house
Procedure: Calorimetric measurements were carried out using a MicroCal ITC200 microcalorimeter (MicroCal, Malvern Instruments) with 205.9 μL cell volume. All the experiments were performed using 20 mM Na-HEPES (or Na-Phosphate), 200 mM NaCl, pH 7.4. […] Each titration was initiated by a 0.5 μL injection followed by 14–30 injections of 1.2–2.5 μL (spaced 150 s). Heats of dilution were determined experimentally from blank titrations. The association constants (Ka), binding enthalpy changes (ΔH), as well as the binding stoichiometries (N), were obtained by non-linear regression analysis using a one-independent-type-of-sites binding model implemented in the Origin 7.0. Software (Origin Lab Co., Northampton, MA, USA).

[2] = target: Pex5p; settings: PTS1 octapeptide sequences; read-out: Kd (nM), previously determined dissociation constant; cited from earlier work
Text: The protein sequence in which these octapeptides are naturally found, as well as their previously determined dissociation constant, are indicated [7].

[3] = test system: CHO cells; test: Confocal immunofluorescence colocalization of AGT with mitochondria (Mitotracker) in transfected CHO cells; assay type: cell-based, Chinese hamster; settings: transiently transfected CHO cells, fixed 72 h after transfection; mean ± S.E.; SEM
Procedure: (§1) Chinese hamster ovary (CHO) cells (ATTC, Rockville, MD USA) were grown in alpha-minimal essential medium (α-MEM, Lonza, Köln, Germany) supplemented with glutamine, penicillin/streptomycin and 5% fetal bovine serum. Cell transfections were performed using AGT cDNA variants (AGT-LRM or AGT-LRM-SKL) subcloned in pCIneo plasmids (Promega) with Transfast reagent (Promega, Madison, WI, USA), following manufacturer’s guidelines. After 24 h, cells were passed to plates containing 13 mm glass coverslips for immunofluorescence studies. Mitochondria in half the coverslips were labeled by incubation with Mitotracker (CMXRos, Invitrogen, Carlsbad, CA, USA) at the end of the culture. […]
(§2) For quantitative immune-colocalization, the system was optimized to detect two fluorescent signals in one specimen: one in the green channel detector for protein of interest AGT-LRM or AGT-LRM-SKL and the other in the red channel, for either mitochondria labeled with mitotracker or peroxisomes labeled with peroxisomal membrane protein 70 (PMP70) antibody. […] Colocalization events (or the lack thereof) were analyzed quantitatively with FluoView software (Olympus, Tokyo, Japan) and ImageJ software (NIH, Bethesda, MD, USA) with the JACoP plugin, based on a global statistic approach that conducts an intensity correlation coefficient-based examination. […]

[4] = test system: CHO cells; test: Confocal immunofluorescence colocalization of AGT with peroxisomes (PMP70) in transfected CHO cells; assay type: cell-based, Chinese hamster; settings: mean ± S.E., SEM
Procedure: as §1, §2

[5] = PTS1 nonapeptides (500 μM) titrated into Pex5p-pbd (20 μM), means of two independent titrations
[6] = AGT proteins, mean ± s.d. of three independent titrations, SD
[7] = mean ± s.d. of three independent titrations, SD

Substance: VAQATC KL [HMG, reference compound]
- decrease in the enthalpic penalty (more favorable enthalpic contribution) to binding compared to the natural PTS1 sequence [1]: about 16 kJ/mol
- Kd [2]: 2000 nM

Substance: YQSHPRAKL [pCRA]
- Kd [1, 5]: 157 nM

Substance: VGSL K S KL [ACO]
- Kd [2]: 1.6 nM

Substance: YQHCPKSKL [pAGT-SKL]
- Kd [1, 5]: 29 nM

Substance: YQHCPKKKL [pAGT]
- Kd [1, 5]: 19000 nM

Substance: QHCPKKKL [AGT, alanine: glyoxylate aminotransferase, reference compound]
- -TΔS [1, 6]: -13.2 ± 0.287 kcal/mol
- Kd [1, 6]: 1400 ± 200 nM
- ΔG [1, 6]: -8.01 ± 0.096 kcal/mol
- ΔH [1, 6]: 5.19 ± 0.884 kcal/mol
- ΔCp ([1]; AGT proteins): −2.5 ± 0.4 kJ/mol·K
- N (binding stoichiometry) [1, 7]: 1.0 ± 0.1

Substance: QHCPK S KL [AGT-SKL]
- -TΔS [1, 6]: -11.8 ± 0.406 kcal/mol
- ΔG [1, 6]: -10.3 ± 0.22 kcal/mol
- ΔH [1, 6]: 1.51 ± 0.19 kcal/mol
- ΔCp ([1]; AGT proteins): −2.7 ± 0.1 kJ/mol·K
- decrease in the enthalpic penalty (more favorable enthalpic contribution) to binding compared to the natural PTS1 sequence [1]: about 16 kJ/mol
- N (binding stoichiometry) [1, 7]: 0.8 ± 0.1
- Pearson Rr, AGT + Mitotracker [3]: 0.47 ± 0.08
- % Coloc (Manders' m), AGT + PMP70 ([4]; CHO cells, given as fraction, split Manders' M1 in situation 2, Manders' overlap R in situation 4): 0.84 ± 0.08
- Pearson Rr, AGT + PMP70 ([4]; transiently transfected CHO cells, fixed 72 h after transfection): 0.79 ± 0.08

Substance: YVGSLKSKL [pACO]
- Kd [1, 5]: 14 nM
